Source: US20040242671A1, “Use of 2-oxo-1-pyrrolidine derivatives for the preparation of a drug” (priority 2001, published 2004)

Columns and labels:
[1] = A. J. GOWER et al., Eur. J. Pharmacol., 222, (1992), 193-203; cited from earlier work
[2] = tested on: MPTP-lesioned marmoset model of Parkinson's disease; test: Parkinsonian disability score with L-DOPA, MPTP-lesioned marmoset (Example 1); format: in vivo, marmosets (Callithrix jacchus); details: for Disability scores: levetiracetam 13, 30 and 60 mg/kg + L-DOPA 12 mg/kg, p>0.05
Procedure: (§1) This study was designed to investigate whether levetiracetam has anti-dyskinetic activity in the 1-methyl-4-phenyl-1,2,3,6-tetrahydropyridine (MPTP)-lesioned marmoset model of Parkinson's disease. The effect of levetiracetam on L-3,4-dihydroxyphenylalanine (L-DOPA)-induced dyskinesias and alleviation of parkinsonism symptoms was investigated.
(§2) The study was performed on seven adult marmosets (Callithrix jacchus) bred in a closed colony. The marmosets were rendered parkinsonian by subcutaneous injection of 2 mg/kg MPTP for 5 consecutive days. The marmosets were allowed to recover for 18 weeks until their parkinsonism became stable. The degree of activity and disability before and after MPTP treatment was assessed using a combination of scales that measure locomotor activity, mobility, bradykinesia and posture. Animals were treated with L-DOPA (12.5 mg/kg b.i.d. for 6 weeks) to prime them to elicit dyskinesia.
(§3) All drugs were administered orally in a volume of 5 ml/kg via a syringe in the animal's home cage. The animals were immediately transferred to the experimental cage (60 cm×55 cm×75 cm, with the perch 25 cm from floor of cage) for behavioural assessment. Vehicle was apple juice in all cases.
(§4) 2) Parkinsonian disability—non-parametric measures based on the following scales
(§5) a) Range of movement score: 0=no movement, 1=movement of head on the floor of the cage, 2=movement of limbs, but no locomotion, on the floor of the cage, 3=movement of head or trunk on wall of cage or perch, 4=movement of limbs, but no locomotion, on wall of cage or perch, 5=walking around floor of cage or eating from hopper on floor, 6=hopping on floor of cage, 7=climbing onto wall of cage or perch, 8=climbing up and down the walls of the cage or along perch, 9=running, jumping, climbing between cage walls/perch/roof, uses limbs through a wide range of motion and activity.
(§6) b) Bradykinesia score: 0=normal speed and initiation of movement, 1=mild slowing of movement, 2=moderate slowing, difficulty initiating and maintaining movement, marked freezing, 3=akinetic, unable to move, with prolonged freezing episodes
(§7) c) Postural abnormality score: 0=normal, upright, holds head up, normal balance, 1=abnormal, crouched, face down, may lose balance. […]
(§8) Behaviour was assessed for 6 hours post drug administration. Behavioural test 1, activity, was assessed every 5 minutes for 6 hours post drug administration. Behavioural tests 2 and 3, parkinsonian disability and dyskinesia, respectively, were assessed for 10 minutes every 30 minutes over the course of 6 hours, by post hoc analysis of video-recordings by an observer blinded to the treatment. […]

[3] = tested on: MPTP-lesioned marmoset model of Parkinson's disease; test: L-DOPA-induced dyskinesia score, MPTP-lesioned marmoset (Example 2); format: in vivo, marmosets (Callithrix jacchus); details: for Dyskinesia: first hour post drug administration, vs L-DOPA + vehicle, p<0.05
Procedure: (§9) This study was designed to investigate whether the compound ((2S)-2-[(4S)-4-(2,2-difluorovinyl)-2-oxopyrrolidinyl]butanamide) (named compound A) has anti-dyskinetic activity in the 1-methyl-4-phenyl-1,2,3,6-tetrahydropyridine (MPTP)—lesioned marmoset model of Parkinson's disease. The effect of the compound A on L-3,4-dihydroxyphenylalanine (L-DOPA)-induced dyskinesias and alleviation of anti parkinsonism symptoms was investigated.
as §2, with “nine” for “seven”, “(13.9+/−0.8” for “(12.5”
as §3
3)Dyskinesia—non-parametric measures based on the following scale
Dyskinesia score: 0=Absent, 1=Mild, fleeting, 2=Moderate, not interfering with normal activity, 3=Marked, at times interfering with normal activity, 4=Severe, continuous, replacing normal activity.
(§10) Behaviour was assessed for 6 hours post drug administration. Behavioural test 1, activity, was assessed every 5 minutes for 6 hours post drug administration. Behavioural tests 2 and 3, parkinsonian disability and dyskinesia, respectively, were assessed for 10 minutes every 30 minutes over the course of 6 hours, by post hoc analysis of video-recordings by an observer blinded to the treatment. The score given in each 10 minutes time period represents the maximum score achieved during that time period.
Four doses of compound A drug (1 mg/kg, 3 mg/kg, 10 mg/kg and 30 mg/kg) in combination with a single dose of L-DOPA were tested using a randomized treatment schedule. The actions of each of these four combination therapies were compared with that of L-DOPA plus the appropriate vehicle. Thus, a total of five treatments were given.

[4] = tested on: MPTP-lesioned marmoset model of Parkinson's disease; test: L-DOPA-induced dyskinesia score, MPTP-lesioned marmoset (Example 1); format: in vivo, marmosets (Callithrix jacchus); details: for Dyskinesia: first hour post drug administration, vs L-DOPA + vehicle
Procedure: as §1, §2, §3
3)Dyskinesia—non-parametric measures based on the following scale Dyskinesia score: 0=Absent, 1=Mild, fleeting, 2=Moderate, not interfering with normal activity, 3=Marked, at times interfering with normal activity, 4=Severe, continuous, replacing normal activity.
as §10
Table 1 outlines the randomised treatment schedule i.e. three doses of levetiracetam drug in combination with a single dose of L-DOPA. The actions of each of these three combination therapies were compared with that of L-DOPA plus the appropriate vehicle. Thus, a total of four treatments were given.

[5] = tested on: MPTP-lesioned marmoset model of Parkinson's disease; test: Parkinsonian disability score with L-DOPA, MPTP-lesioned marmoset (Example 2); format: in vivo, marmosets (Callithrix jacchus); details: for Disability scores: compound A 1, 3, 10 and 30 mg/kg + L-DOPA, p>0.05
Procedure: as §9
as §2, with “nine” for “seven”, “(13.9+/−0.8” for “(12.5”
as §3, §4, §5, §6, §7, §8

[6] = tested on: MPTP-lesioned marmoset model of Parkinson's disease; test: Activity and on-time with Ropinirole, MPTP-lesioned marmoset (Example 3); format: in vivo, marmosets (Callithrix jacchus); details: for "on-time" / Activity: P<0.01; for Enhancement of "on-time": six hour experiment
Procedure: (§11) This study was designed to investigate whether Levetiracetam has a potential as an adjunctive anti-parkinsonian agent to dopamine replacement therapy in the 1-methyl-4-phenyl-1,2,3,6-tetrahydropyridine (MPTP)-lesioned marmoset model of Parkinson's disease. The effect of Levetiracetam on Ropinirole alleviation of parkinsonism symptoms was investigated. The study was performed on six adult marmosets (Callithrix jacchus; 4 female, 2 male). The marmosets were rendered parkinsonian by subcutaneous injection of 2 mg/kg MPTP for 5 consecutive days. The marmosets were allowed to recover for 18 weeks until their parkinsonism was stable. The degree of activity and disability before and after MPTP treatment were assessed using a combination of scales that measure locomotor activity, mobility, bradykinesia and posture. Animals were treated with L-DOPA 12 mg/kg b.i.d. for 6 weeks. After this time, animals were used for assessment of potential symptomatic antiparkinsonian therapy. All drugs were administered orally in a volume of 5 ml/kg via a syringe in the animal's home cage. The animals were immediately transferred to an experimental cage (60 cm×55 cm×75 cm, with the perch 25 cm from floor of cage) for behavioural assessment. Vehicle was apple juice in all cases. The doses were 3.75 mg/kg of Ropinirole in combination with Levetiracetam at 13, 30 and 60 mg/kg. Behaviour was assessed for 6 hours post drug administration. 1) Activity—a quantitative assessment using computer-based activity monitors was obtained every 5 minutes for the duration of the experiment. Behavioural test 1 (activity) was assessed every 5 minutes for 6 hours post drug administration. Behavioural tests 2 (parkinsonian disability) was assessed for 10 minutes every 30 minutes over the course of 6 hours, by post hoc analysis of video-recordings by an observer blinded to the treatment. The score given/achieved in each 10 minute time period was presented. Cumulated data for parkinsonian disability, range of movement, bradykinesia and postural abnormalities were analysed with a non-parametric repeated measures one-way ANOVA (Friedman's test) followed by Dunn's multiple comparison test (Graphpad Prism version 3).

[7] = tested on: MPTP-lesioned marmoset model of Parkinson's disease; test: Parkinsonian disability with Ropinirole, MPTP-lesioned marmoset (Example 3); format: in vivo, marmosets (Callithrix jacchus); details: for Parkinsonian disability: Levetiracetam 13 mg/kg + Ropinirole 3.75 mg/kg
Procedure: as §11, with “1) Activity—a quantitative assessment using computer-based activity monitors was obtained every 5 minutes for the duration of the experiment.” left out, “presented.” for “presented. Cumulated data for parkinsonian disability, range of movement, bradykinesia and postural abnormalities were analysed with a non-parametric repeated measures one-way ANOVA (Friedman's test) followed by Dunn's multiple comparison test (Graphpad Prism version 3).”

[8] = L-DOPA alone (13.9+/−0.8 mg/kg), oral
[9] = any time-point after one hour post drug administration
[10] = first hour post drug administration
[11] = Levetiracetam 13 mg/kg + Ropinirole 3.75 mg/kg
[12] = Levetiracetam 30 mg/kg + Ropinirole 3.75 mg/kg

## CC[C@H](C(N)=O)N1CCCC1=O [(R)-(+)-α-ethyl-2-oxo-1-pyrrolidine-acetamide]
[1]
  Activity in the treatment of epilepsy: completely devoid of activity

## N[C@@H](Cc1ccc(O)c(O)c1)C(=O)O [L-DOPA, L-3,4-dihydroxyphenylalanine]
[2]; L-DOPA 12 mg/kg alone, oral
  Effect on parkinsonian symptoms: reversed parkinsonian symptoms
[3]; [8]
  Dyskinesia accompanying alleviation of parkinsonian symptoms: accompanied by dyskinesia
[4]; L-DOPA 12 mg/kg alone, oral
  Dyskinesia accompanying alleviation of parkinsonian symptoms: severe dyskinesia
[5]; [8]
  Effect on parkinsonian symptoms: reversed parkinsonian symptoms

## CC[C@@H](C(N)=O)N1C[C@H](C=C(F)F)CC1=O [compound A, (2S)-2-[(4S)-4-(2,2-difluorovinyl)-2-oxopyrrolidinyl]butanamide]
[3]; compound A 10 mg/kg + L-DOPA 13.9+/−0.8 mg/kg oral
  Dyskinesia: significantly reduced
[3]; compound A 30 mg/kg + L-DOPA 13.9+/−0.8 mg/kg oral
  Dyskinesia: significantly reduced
[3]; compound A 1, 3, 10 and 30 mg/kg + L-DOPA, any time-point after one hour post drug administration, p>0.05
  Dyskinesia scores: no significant differences
[5]; [9]
  Disability scores: no significant differences
[5]; [10]
  Disability scores: no significant differences
[5]; compound A 1 to 30 mg/kg + L-DOPA 13.9+/−0.8 mg/kg
  Reversal of parkinsonian symptoms at peak effect, compared with L-DOPA monotherapy: same magnitude

## CC[C@@H](C(N)=O)N1CCCC1=O [levetiracetam, (S)-α-ethyl-2-oxo-1-pyrrolidineacetamide]
[2]; [9]
  Disability scores: no significant differences
[2]; [10]
  Disability scores: no significant differences
[2]; levetiracetam 13 to 60 mg/kg + L-DOPA 12 mg/kg
  Reversal of parkinsonian symptoms at peak effect, compared with L-DOPA monotherapy: same magnitude
[4]; levetiracetam 13 mg/kg + L-DOPA 12 mg/kg oral, p<0.01
  Dyskinesia: significantly reduced
[4]; levetiracetam 30 mg/kg + L-DOPA 12 mg/kg oral, p<0.05
  Dyskinesia: significantly reduced
[4]; levetiracetam 60 mg/kg + L-DOPA 12 mg/kg oral, p<0.01
  Dyskinesia: significantly reduced
[4]; levetiracetam 13, 30 and 60 mg/kg + L-DOPA 12 mg/kg, any time-point after one hour post drug administration, p>0.05
  Dyskinesia scores: no significant differences
[6]; [11]
  "on-time": significantly increased
  Activity: significantly increased
  Enhancement of "on-time": approximately 82%
[6]; [12]
  "on-time": significantly increased
  Activity: significantly increased
  Enhancement of "on-time": ~69%
[7]; Levetiracetam 13 mg/kg + Ropinirole 3.75 mg/kg oral
  Potentiation of the alleviation of parkinsonism by Ropinirole: significantly potentiated
[7]; during 3-4 hour time period, P<0.05
  Parkinsonian disability: significantly reduced
[7]; over the experiment as a whole, P<0.05
  Parkinsonian disability: significantly reduced
[7]; Levetiracetam 30 mg/kg + Ropinirole 3.75 mg/kg oral
  Potentiation of the alleviation of parkinsonism by Ropinirole: significantly potentiated
[7]; Levetiracetam 30 mg/kg + Ropinirole 3.75 mg/kg, during the 0-1 hour time period, P<0.05
  Range of movement: significantly increased
[7]; Levetiracetam 60 mg/kg + Ropinirole 3.75 mg/kg oral
  Potentiation of the alleviation of parkinsonism by Ropinirole: not
